Patent publication EP4775586A1, “DEUTERATED TETRACYCLIC DERIVATIVE AND USE THEREOF” (priority 2023, dated 2025)
Converted amounts (≈) assume the structure as drawn. Where a name gives a salt, the structure may show the parent alone.

system: Mycobacterium tuberculosis H37Rv; test: Minimum inhibitory concentration (MIC90) against Mycobacterium tuberculosis H37Rv, Middlebrook 7H9, 96-well plate, 15 days; format: cell-based; conditions: 360 h; Mycobacterium tuberculosis H37Rv, 15 days of incubation, 90% inhibition of growth, visual reading; read-out: MIC90

Molecule	MIC90 [mg/L]
[2H]C([2H])(c1c(O)ccc2oc3c(c12)C(=O)OCc1cc(O)ccc1-3)N1CCC(c2cccc(Cl)c2)CC1 [YF006, 8-((4-(3-Chlorophenyl)piperidin-1-yl)methyl-d2)-3,9-dihydroxybenzo[5,6]oxepino[4,3-b]benzofuran-7(5H)-one]	0.125 (≈ 0.254 µM)
[2H]C1([2H])CC(c2cccc(Cl)c2)CC([2H])([2H])N1Cc1c(O)ccc2oc3c(c12)C(=O)OCc1cc(O)ccc1-3 [YF007, 8-((4-(3-Chlorophenyl)piperidin-1-yl-2,2,6,6-d4)methyl)-3,9-dihydroxybenzo[5,6]oxepino[4,3-b]benzofuran-7(5H)-one]	0.125 (≈ 0.253 µM)
[2H]C1([2H])CC(c2cccc(Cl)c2)CC([2H])([2H])N1C([2H])([2H])c1c(O)ccc2oc3c(c12)C(=O)OCc1cc(O)ccc1-3 [YF008, 8-((4-(3-Chlorophenyl)piperidin-1-yl-2,2,6,6-d4)methyl-d2)-3,9-dihydroxybenzo[5,6]oxepino[4,3-b]benzofuran-7(5H)-one]	0.0625 (≈ 0.126 µM)
[2H]c1c(O)c(C([2H])([2H])N2C([2H])([2H])CC(c3cccc(Cl)c3)CC2([2H])[2H])c2c3c(oc2c1[2H])-c1ccc(O)cc1C([2H])([2H])OC3=O [YF009, 8-((4-(3-Chlorophenyl)piperidin-1-yl-2,2,6,6-d4)methyl-d2)-3,9-dihydroxybenzo[5,6]oxepino[4,3-b]benzofuran-7(5H)-one-5,5,10,11-d4]	0.125 (≈ 0.25 µM)
[2H]C([2H])(CC)C(=O)C1([2H])CCN(Cc2c(O)ccc3oc4c(c23)C(=O)OCc2cc(O)ccc2-4)CC1 [YF011, 8-((4-(Butanoyl-2,2-d2)piperidin-1-yl-4-d)methyl)-3,9-dihydroxybenzo[5,6]oxepino[4,3-b]benzofuran-7(5H)-one]	0.0625 (≈ 0.138 µM)
[2H]C1([2H])CC(C(=O)CCC)CC([2H])([2H])N1C([2H])([2H])c1c(O)ccc2oc3c(c12)C(=O)OCc1cc(O)ccc1-3 [YF012, 8-((4-Butanoylpiperidin-1-yl-2,2,6,6-d4)-methyl-d2)-3,9-dihydroxybenzo[5,6]oxepino[4,3-b]benzofuran-7(5H)-one]	0.0312 (≈ 0.0686 µM)
[2H]c1c(O)c(C([2H])([2H])N2C([2H])([2H])CC(C(=O)CCC)CC2([2H])[2H])c2c3c(oc2c1[2H])-c1ccc(O)cc1C([2H])([2H])OC3=O [YF013, 8-((4-Butanoylpiperidin-1-yl-2,2,6,6-d4)-methyl-d2)-3,9-dihydroxybenzo[5,6]oxepino[4,3-b]benzofuran-7(5H)-one-5,5,10,11-d4]	0.0625 (≈ 0.136 µM)
[2H]C([2H])(c1c(O)ccc2oc3c(c12)C(=O)OCc1cc(O)ccc1-3)N1CCC(C(O)CCC)CC1 (centres unmarked) [YF015, 3,9-Dihydroxy-8-((4-(1-hydroxybutyl)piperidin-1-yl)methyl-d2)benzo[5,6]oxepino[4,3-b]benzofuran-7(5H)-one]	0.0156 (≈ 0.0344 µM)
[2H]C(O)(CCC)C1CCN(C([2H])([2H])c2c(O)ccc3oc4c(c23)C(=O)OCc2cc(O)ccc2-4)CC1 (centres unmarked) [YF016, 3,9-Dihydroxy-8-((4-(1-hydroxybutyl-1-d)piperidin-1-yl)methyl-d2)benzo[5,6]oxepino[4,3-b]benzofuran-7(5H)-one]	0.0156 (≈ 0.0343 µM)
[2H]C([2H])(CC)C(O)C1([2H])CCN(Cc2c(O)ccc3oc4c(c23)C(=O)OCc2cc(O)ccc2-4)CC1 (centres unmarked) [YF017, 3,9-Dihydroxy-8-((4-(1-hydroxybutyl-2,2-d2)piperidin-1-yl-4-d)methyl)benzo[5,6]oxepino[4,3-b]benzofuran-7(5H)-one]	0.0156 (≈ 0.0343 µM)
[2H]C([2H])(CC)C([2H])(O)C1([2H])CCN(Cc2c(O)ccc3oc4c(c23)C(=O)OCc2cc(O)ccc2-4)CC1 (centres unmarked) [YF018, 3,9-Dihydroxy-8-((4-(1-hydroxybutyl-1,2,2-d3)piperidin-1-yl-4-d)methyl)benzo[5,6]oxepino[4,3-b]benzofuran-7(5H)-one]	0.0156 (≈ 0.0342 µM)

same assay, conditions: H37RV, 360 h

Molecule	MIC90 [mg/L]
[2H]c1c(O)c(C([2H])([2H])N2C([2H])([2H])CC(C(O)CCC)CC2([2H])[2H])c2c3c(oc2c1[2H])-c1ccc(O)cc1C([2H])([2H])OC3=O (centres unmarked) [YF021, 3,9-Dihydroxy-8-((4-(1-hydroxybutyl)piperidin-2,2,6,6-d4-1-yl)methyl-d2)benzo[5,6]oxepino[4,3-b]benzofuran-7(5H)-one-5,5,10,11-d4]	0.0156 (≈ 0.0338 µM)
[2H]c1c(O)c(C([2H])([2H])N2C([2H])([2H])CC(C([2H])(O)CCC)CC2([2H])[2H])c2c3c(oc2c1[2H])-c1ccc(O)cc1C([2H])([2H])OC3=O (centres unmarked) [YF022, 3,9-Dihydroxy-8-((4-(1-hydroxybutyl-1-d)piperidin-2,2,6,6-d4-1-yl)methyl-d2)benzo[5,6]oxepino[4,3-b]benzofuran-7(5H)-one-5,5,10,11-d4]	0.0156 (≈ 0.0337 µM)
[2H]c1c(O)c(C([2H])([2H])N2CCC([2H])(C(O)C([2H])([2H])CC)CC2)c2c3c(oc2c1[2H])-c1ccc(O)cc1C([2H])([2H])OC3=O (centres unmarked) [YF023, 3,9-Dihydroxy-8-((4-(1-hydroxybutyl-2,2-d2)piperidin-1-yl-1-d)methyl-d2)benzo[5,6]oxepino[4,3-b]benzofuran-7(5H)-one-5,5,10,11-d4]	0.0156 (≈ 0.0339 µM)
[2H]c1c(O)c(C([2H])([2H])N2CCC([2H])(C([2H])(O)C([2H])([2H])CC)CC2)c2c3c(oc2c1[2H])-c1ccc(O)cc1C([2H])([2H])OC3=O (centres unmarked) [YF024, 3,9-Dihydroxy-8-((4-(1-hydroxybutyl-1,2,2-d3)piperidin-1-yl-1-d)methyl-d2)benzo[5,6]oxepino[4,3-b]benzofuran-7(5H)-one-5,5,10,11-d4]	0.0156 (≈ 0.0338 µM)

same assay, conditions: Mycobacterium tuberculosis H37Rv, 15 days of incubation, 90% inhibition of growth, visual reading

Molecule	MIC90 [mg/L]
3,9-Dihydroxy-8-((4-(1-hydroxybutyl-1-d)piperidin-1-yl)methyl-d2)benzo[5,6]oxepino[4,3-b]benzofuran-7(5H)-one hydrochloride [YF040]	0.0156
8-((4-(Butanoyl-2,2-d2)piperidin-1-yl-4-d)methyl-d2)-3,9-dihydroxybenzo[5,6]oxepino[4,3-b]benzofuran-7(5H)-one-5,5,10,11-d4 hydrochloride [YF038]	0.0625
8-((4-(Butanoyl-2,2-d2)piperidin-1-yl-4-d)methyl-d2)-3,9-dihydroxybenzo[5,6]oxepino[4,3-b]benzofuran-7(5H)-one-5,5, 10,11-d4 [YF014]	0.0625
[2H]C1([2H])CC(C(O)CCC)CC([2H])([2H])N1C([2H])([2H])c1c(O)ccc2oc3c(c12)C(=O)OCc1cc(O)ccc1-3 (centres unmarked) [YF019, 3,9-Dihydroxy-8-((4-(1-hydroxybutyl)piperidin-2,2,6,6-d4-1-yl)methyl)benzo[5,6]oxepino[4,3-b]benzofuran-7(5H)-one]	0.0078 (≈ 0.017 µM)

same assay, conditions: Mycobacterium tuberculosis, H37RV, 360 h, Mycobacterium tuberculosis H37Rv, 15 days of incubation, 90% inhibition of growth, visual reading

Molecule	MIC90 [mg/L]
[2H]C([2H])(c1c(O)cc(C(C)(C)C)c2oc3c4ccc(O)cc4oc(=O)c3c12)N1CCCCC1 [YF001, 10-(tert-Butyl)-3,8-dihydroxy-7-(piperidin-1-ylmethyl-d2)-6H-benzofuran[3,2-c]chromen-6-one]	≤ 0.0039
[2H]C1([2H])CCCC([2H])([2H])N1Cc1c(O)cc(C(C)(C)C)c2oc3c4ccc(O)cc4oc(=O)c3c12 [YF002, 10-(tert-Butyl)-3,8-dihydroxy-7-((piperidin-1-yl-2,2,6,6-d4)methyl)-6H-benzofuran[3,2-c]chromen-6-one]	≤ 0.0039
[2H]C1([2H])CCCC([2H])([2H])N1C([2H])([2H])c1c(O)cc(C(C)(C)C)c2oc3c4ccc(O)cc4oc(=O)c3c12 [YF003, 10-(tert-Butyl)-3,8-dihydroxy-7-((piperidin-1-yl-2,2,6,6-d4)methyl-d2)-6H-benzofuran[3,2-c]chromen-6-one]	≤ 0.0039
[2H]C1([2H])N(Cc2c(O)cc(C(C)(C)C)c3oc4c5ccc(O)cc5oc(=O)c4c23)C([2H])([2H])C([2H])([2H])C([2H])([2H])C1([2H])[2H] [YF004, 10-(tert-Butyl)-3,8-dihydroxy-7-((piperidin-1-yl-d10)methyl)-6H-benzofuran[3,2-c]chromen-6-one]	≤ 0.0039
[2H]C([2H])(c1c(O)cc(C(C)(C)C)c2oc3c4ccc(O)cc4oc(=O)c3c12)N1C([2H])([2H])C([2H])([2H])C([2H])([2H])C([2H])([2H])C1([2H])[2H] [YF005, 10-(tert-Butyl)-3,8-dihydroxy-7-((piperidin-1-yl-d10)methyl-d2)-6H-benzofuran[3,2-c]chromen-6-one]	≤ 0.0039
[2H]C([2H])(c1c(O)ccc2oc3c(c12)C(=O)OCc1cc(O)ccc1-3)N1CCC(C(=O)CCC)CC1 [YF010, 8-((4-Butanoyl)piperidin-1-ylmethyl-d2)-3,9-dihydroxybenzo[5,6]oxepino[4,3-b]benzofuran-7(5H)-one]	0.0625 (≈ 0.138 µM)
[2H]C(O)(CCC)C1CC([2H])([2H])N(C([2H])([2H])c2c(O)ccc3oc4c(c23)C(=O)OCc2cc(O)ccc2-4)C([2H])([2H])C1 (centres unmarked) [YF020, 3,9-Dihydroxy-8-((4-(1-hydroxybutyl-1-d)piperidin-2,2,6,6-d4-1-yl)methyl)benzo[5,6]oxepino[4,3-b]benzofuran-7(5H)-one]	0.0156 (≈ 0.034 µM)
[2H]C1([2H])CC(C(O)CCC)CC([2H])([2H])N1C([2H])([2H])c1c(O)ccc2oc3c(c12)C(=O)OCc1cc(O)ccc1-3 (centres unmarked) [YF043, 3,9-Dihydroxy-8-((4-(1-hydroxybutyl)piperidin-2,2,6,6-d4-1-yl)methyl)benzo[5,6]oxepino[4,3-b]benzofuran-7(5H)-one hydrochloride]	0.0156
[2H]c1c(O)c(C([2H])([2H])N2C([2H])([2H])CC(C(O)CCC)CC2([2H])[2H])c2c3c(oc2c1[2H])-c1ccc(O)cc1C([2H])([2H])OC3=O (centres unmarked) [YF045, 3,9-Dihydroxy-8-((4-(1-hydroxybutyl)piperidin-2,2,6,6-d4-1-yl)methyl-d2)benzo[5,6]oxepino[4,3-b]benzofuran-7(5H)-one-5,5,10,11-d4 hydrochloride]	0.0156
[2H]c1c(O)c(C([2H])([2H])N2C([2H])([2H])CC(C([2H])(O)CCC)CC2([2H])[2H])c2c3c(oc2c1[2H])-c1ccc(O)cc1C([2H])([2H])OC3=O (centres unmarked) [YF046, 3,9-Dihydroxy-8-((4-(1-hydroxybutyl-1-d)piperidin-2,2,6,6-d4-1-yl)methyl-d2)benzo[5,6]oxepino[4,3-b]benzofuran-7(5H)-one-5,5,10,11-d4 hydrochloride]	0.0156
